Tests used:
[1] = system: oxidoreductase according to the invention; experiment: Enantiomeric excess of the alcohol formed from selected substrates (GC); format: biochemical, Pichia capsulata; details: 24 h
Description: For the determination of the ee-value, the following reaction batch was used for selected substrates.
The batches for ee-determination were extracted with chloroform after 24 h and the enantiomeric excess of the resulting alcohol was determined via GC.

[2] = system: oxidoreductase according to the invention; experiment: Substrate spectrum (relative enzyme activity with different substrates); format: biochemical, Pichia capsulata; details: activity with ethyl-4-chloroacetoacetate = 100%
Description: Incubation lasted for about 2 to 3 min, thereupon 100 μl of a substrate solution (100 mM ethyl-4-chloro-3-oxobutanoate were added.
The substrate spectrum of the oxidoreductase according to the invention was determined by measuring the enzyme activity with a number of ketones, oxoacids and esters thereof. […] The activity with ethyl-4-chloroacetoacetate was equalled to 100% and all the other substrates were set in relation thereto.

[3] = system: recombinant oxidoreductase from Pichia capsulata; experiment: Preparative conversions with recombinant oxidoreductase; format: biochemical; details: for share of the substrate used that was reduced: after 24 h at room temperature, isopropanol as cosubstrate, NAD; for enantiomeric excess of the recovered product: preparative batch, 24 h at room temperature
Description: For the preparative batch, a mixture of […] of a buffer (100 mM TEA, pH=7, 1 mM ZnCl2, 10% glycerol), 4 1 isopropanol, 4 1 4-chloroacetoacetate, 4 g NAD and 3.6 million U of recombinant oxidoreductase from Pichia capsulata was incubated for 24 h at room temperature under constant mixing. […] Subsequently, the reaction mixture was extracted with ethyl acetate, the solvent was removed by means of a rotary evaporator and the raw product was distilled.
For the preparative batch, a mixture of 164 ml of a buffer (100 mM TEA, pH=7, 1 mM ZnCl2, 20% glycerol), 16 ml isopropanol, 20 g 2-chloro-1-(3-chlorophenyl)ethane-1-one dissolved in 20 ml methyl tert-butyl ether (MTBE), 10 mg NAD and 20,000 U of recombinant oxidoreductase from Pichia capsulata was incubated for 24 h at room temperature under constant mixing. […] Subsequently, the reaction mixture was extracted with ethyl acetate, and the solvent was removed using the rotary evaporator.

Compound	Stereoselectivity ([1]; S-alcohol in excess) [% S]	Relative activity % [2] [%]	also measured
CC(=O)Cc1ccccc1 [1-Phenyl-2-propanone]	97	24	
CCC(C)=O [2-Butanone]	50	99	
O=C(CCl)c1cccc(Cl)c1 [2-Chloro-1-(3-chlorophenyl)ethane-1-one]		21	Stereoselectivity ([1]; R-alcohol in excess): 100% R; share of the substrate used that was reduced [3]: 96%
CCCCCCC(C)=O [2-Octanone]	100	88	
O=C(O)C(=O)Cc1ccccc1 [2-Oxo-3-phenyl propionic acid]		0	
CCC(=O)C(=O)O [2-Oxobutanoic acid]		0	
CCCC(=O)C(=O)O [2-Oxovaleric acid]		0	
CCCCCC(=O)CC [3-Octanone]		30	
CC(=O)CCO [4-Hydroxy-2-butanone]	90	99	
O[C@@H](CCl)c1cccc(Cl)c1 [(R)-2-chloro-1-(3-chlorophenyl)ethane-1-ol]			enantiomeric excess of the recovered product [3]: 100%
CC(=O)c1ccccc1 [Acetophenone]		4	
CCCCCCCC(=O)c1ccccc1 [Caprylophenone]		0	
COC(=O)CCCCC(=O)CC(=O)OC [Dimethyl-3-oxo-1,8-octandioic acid]		3.5	
CCOC(=O)CC(C)=O [Ethyl acetoacetate]	99	100	
CCOC(=O)C(=O)c1ccccc1 [Ethyl phenyl glyoxylate]		5.2	Stereoselectivity ([1]; R-alcohol in excess): 100% R
CCOC(=O)C(C)=O [Ethyl pyruvate]	100	10	
CCOC(=O)C(=O)CCc1ccccc1 [Ethyl-2-oxo-4-phenylbutanoic acid]	95	76	
CCCC(=O)C(=O)OCC [Ethyl-2-oxovaleriate]	97	41	
CCOC(=O)CC(=O)CC [Ethyl-3 oxovaleriate]		67	
CCOC(=O)CC(=O)CCl [Ethyl-4-chloroacetoacetate]		100	Stereoselectivity ([1]; R-alcohol in excess): 99% R; share of the substrate used that was reduced [3]: 99%
CCOC(=O)CCCCC(=O)CCCl [Ethyl-8-chloro-6-oxooctanoic acid]		20	Stereoselectivity ([1]; R-alcohol in excess): 100% R
COC(=O)CC(C)=O [Methyl acetoacetate]	97	150	
CCOC(=O)C[C@@H](O)CCl [ethyl-(R)-4-chloro-3-hydroxybutanoate]			enantiomeric excess of the recovered product [3]: 99%

Reference: US7575909B2, “Oxidoreductase from pichia capsulata” (IEP GmbH, priority 2003, dated 2009)
